Measured values reported in PMC9503898, “Synthesis and Evaluation of Two Long-Acting SSTR2 Antagonists for Radionuclide Therapy of Neuroendocrine Tumors” (Pharmaceuticals, 2022).
Positions of bridges follow the written chain, without caps; N, C: chain ends. Non-standard residues stand in square brackets, D forms with d. Residues, ends and D or L forms follow the SMILES beside them. *: point of attachment. DOTA = O=C(O)CN1CCN(CC(=O)O)CCN(CC(=O)*)CCN(CC(=O)O)CC1; dPhe(4-NHCONH2) = NC(=O)Nc1ccc(C[C@@H](N)C(=O)O)cc1; Butanoyl(4-(4-I-phenyl)) = O=C(CCCc1ccc(I)cc1)*; Dihydroorotyl(S) = O=C1C[C@@H](C(=O)*)NC(=O)N1; Phe(4-Cl) = N[C@@H](Cc1ccc(Cl)cc1)C(=O)O; Phe(4-NH2) = Nc1ccc(C[C@H](N)C(=O)O)cc1

Columns and labels:
Ex vivo biodistribution = conditions: mouse, iv, 0.5 nmol, total radioactivity
[1] = Determination of lipophilicity (LogD7.4, shake-flask); assay type: physicochemical; conditions: n-octanol/PBS (1:1), pH 7.4, PBS/n-octanol 1:1 (1 mL), ~1.5 MBq, gamma counter, n = 3 (triplicate), mean ± SEM, read-out: Log D7.4
Protocol: The distribution coefficient (LogD7.4) of the ^177Lu-labeled peptides was determined by the shake-flask method. For each radioligand, the experiment was performed in triplicate. The radiolabeled compound (~1.5 MBq) was added to a solution of phosphate buffered saline (PBS)/n-octanol (1 mL, v:v = 1:1) in eppendorf vials. The vials were vortexed vigorously and centrifuged at 10,000 rpm for 3 min. The n-octanol phase was separated from the aqueous phase, poured into new vials, and centrifuged for 15 min. Samples from each phase (10 μL) were measured using a gamma counter. The LogD7.4 value was calculated using the following equation: […].

In vivo SPECT/CT imaging = conditions: mouse, H69 xenograft tumor, iv, 20 MBq/0.5 nmol per animal, total radioactivity
[2] = system: mice bearing SSTR2-positive H69 xenografts; experiment: In vivo SPECT/CT imaging; conditions: H69 xenograft mice, i.v. 20 MBq/0.5 nmol, n = 4
Stability in mouse serum = assay type: in vitro ADME; conditions: % intact radiolabeled ligand, ~3 MBq in 150 μL mouse serum, 37 °C, ACN protein precipitation, radio-HPLC, n = 1
Protocol: (§1) The ^177Lu-labeled compounds (~3 MBq) were incubated in PBS (300 μL) at 37 °C. The stability of the radiolabeled peptides was verified by radio-HPLC at 1, 4, and 24 h. The stability in serum was determined by incubating the radiolabeled compounds (~3 MBq) into 150 μL of mouse serum (Merck; Haarlerbergweg, The Netherlands) at 37 °C. At 1, 4, and 24 h post-incubation, the proteins were precipitated by adding an aliquot of 35 μL of the mixture to an equal volume of ACN. The vial was vortexed and centrifuged for 20 min. stability was monitored by radio-HPLC (Figures S4 and S5).

Stability in PBS = assay type: physicochemical; conditions: % intact radiolabeled ligand, ~3 MBq in PBS (300 μL), 37 °C, radio-HPLC, n = 1
Protocol: as §1

human albumin = human albumin (Homo sapiens, UniProt P02768); experiment: Albumin binding properties (ultrafiltration); conditions: ~1 MBq in human albumin/PBS (500 µL, v:v = 1:4), 1 h, 37 °C; Centrifree ultrafiltration 30 KDa; gamma counter; n = 3, mean ± SEM
Sequence of human albumin (P02768 25-609): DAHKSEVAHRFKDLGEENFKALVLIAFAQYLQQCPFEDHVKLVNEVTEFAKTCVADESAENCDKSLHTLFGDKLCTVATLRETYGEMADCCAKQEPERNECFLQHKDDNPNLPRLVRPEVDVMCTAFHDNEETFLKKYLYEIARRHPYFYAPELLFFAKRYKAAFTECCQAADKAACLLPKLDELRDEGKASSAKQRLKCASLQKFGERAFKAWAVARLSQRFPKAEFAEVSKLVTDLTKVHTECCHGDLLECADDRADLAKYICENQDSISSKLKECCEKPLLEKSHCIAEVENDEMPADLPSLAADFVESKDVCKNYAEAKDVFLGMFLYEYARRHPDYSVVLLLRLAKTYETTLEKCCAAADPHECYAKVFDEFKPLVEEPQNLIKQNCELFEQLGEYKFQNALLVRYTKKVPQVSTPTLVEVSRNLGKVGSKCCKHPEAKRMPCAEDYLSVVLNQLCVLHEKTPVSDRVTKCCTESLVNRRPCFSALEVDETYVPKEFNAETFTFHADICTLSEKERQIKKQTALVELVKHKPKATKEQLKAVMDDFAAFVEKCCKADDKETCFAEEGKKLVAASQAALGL

C[C@@H](O)[C@@H]1NC(=O)[C@H](CCCCN)NC(=O)[C@@H](Cc2ccc(NC(N)=O)cc2)NC(=O)[C@H](Cc2ccc(NC(=O)[C@@H]3CC(=O)NC(=O)N3)cc2)NC(=O)[C@H](NC(=O)[C@H](Cc2ccc(Cl)cc2)NC(=O)[C@H](CCCCNC(=O)CCCc2ccc(I)cc2)NC(=O)CN2CCN(CC(=O)O)CCN(CC(=O)O)CCN(CC(=O)O)CC2)CSSC[C@@H](C(=O)N[C@H](Cc2ccc(O)cc2)C(N)=O)NC1=O [[^177Lu]Lu-8a, metal not drawn] ({DOTA}-K(Butanoyl(4-(4-I-phenyl)))[Phe(4-Cl)][dC][Phe(4-NH2)](Dihydroorotyl(S))[dPhe(4-NHCONH2)]KTC[dY]-NH2; disulfide 3-8)
tissue uptake at 4 h (Ex vivo biodistribution; blood): 21.3 ± 1.1 %ID/g | tissue uptake at 24 h (Ex vivo biodistribution; blood): 18.1 ± 4.2 %ID/g | tissue uptake at 48 h (Ex vivo biodistribution; blood): 12.9 ± 1.2 %ID/g | tissue uptake at 72 h (Ex vivo biodistribution; blood): 8.6 ± 0.5 %ID/g | tissue uptake at 4 h (Ex vivo biodistribution; bone marrow): 1.2 ± 2 %ID/g | tissue uptake at 4 h (Ex vivo biodistribution; bone): 1.3 ± 1.8 %ID/g | tissue uptake at 24 h (Ex vivo biodistribution; bone): 1.5 ± 1.1 %ID/g | tissue uptake at 48 h (Ex vivo biodistribution; bone): 0.9 ± 0.4 %ID/g | tissue uptake at 72 h (Ex vivo biodistribution; bone): 1.2 ± 1 %ID/g | tissue uptake at 4 h (Ex vivo biodistribution; heart): 7.6 ± 1.2 %ID/g | tissue uptake at 24 h (Ex vivo biodistribution; heart): 5.1 ± 0.7 %ID/g | tissue uptake at 48 h (Ex vivo biodistribution; heart): 4.8 ± 0.5 %ID/g | tissue uptake at 72 h (Ex vivo biodistribution; heart): 3.9 ± 0.7 %ID/g | tissue uptake at 4 h (Ex vivo biodistribution; intestine): 2.5 ± 0.2 %ID/g | tissue uptake at 24 h (Ex vivo biodistribution; intestine): 1.7 ± 0.1 %ID/g | tissue uptake at 48 h (Ex vivo biodistribution; intestine): 1.4 ± 0.1 %ID/g | tissue uptake at 72 h (Ex vivo biodistribution; intestine): 1.1 %ID/g | tissue uptake at 4 h (Ex vivo biodistribution; kidney): 9.6 ± 1.2 %ID/g | tissue uptake at 24 h (Ex vivo biodistribution; kidney): 18.4 ± 1.9 %ID/g | tissue uptake at 48 h (Ex vivo biodistribution; kidney): 22.6 ± 1.9 %ID/g | tissue uptake at 72 h (Ex vivo biodistribution; kidney): 21.6 ± 1.4 %ID/g | tissue uptake at 4 h (Ex vivo biodistribution; liver): 4.6 ± 1.2 %ID/g | tissue uptake at 24 h (Ex vivo biodistribution; liver): 3.7 ± 0.2 %ID/g | tissue uptake at 48 h (Ex vivo biodistribution; liver): 3.6 ± 0.2 %ID/g | tissue uptake at 72 h (Ex vivo biodistribution; liver): 2.9 ± 0.3 %ID/g | tissue uptake at 4 h (Ex vivo biodistribution; lung): 9.9 ± 2.9 %ID/g | tissue uptake at 24 h (Ex vivo biodistribution; lung): 7.5 ± 0.6 %ID/g | tissue uptake at 48 h (Ex vivo biodistribution; lung): 7.2 ± 0.3 %ID/g | tissue uptake at 72 h (Ex vivo biodistribution; lung): 6 ± 0.5 %ID/g | tissue uptake at 4 h (Ex vivo biodistribution; muscle): 0.8 ± 1.1 %ID/g | tissue uptake at 24 h (Ex vivo biodistribution; muscle): 1.1 ± 0.1 %ID/g | tissue uptake at 48 h (Ex vivo biodistribution; muscle): 1.2 ± 0.5 %ID/g | tissue uptake at 72 h (Ex vivo biodistribution; muscle): 0.8 ± 0.1 %ID/g | tissue uptake at 4 h (Ex vivo biodistribution; pancreas): 7.2 ± 0.3 %ID/g | tissue uptake at 24 h (Ex vivo biodistribution; pancreas): 6.6 ± 0.3 %ID/g | tissue uptake at 48 h (Ex vivo biodistribution; pancreas): 6.3 ± 0.7 %ID/g | tissue uptake at 72 h (Ex vivo biodistribution; pancreas): 5.3 ± 1.2 %ID/g | tissue uptake at 4 h (Ex vivo biodistribution; skin): 5.9 ± 1.1 %ID/g | tissue uptake at 24 h (Ex vivo biodistribution; skin): 5.4 ± 0.9 %ID/g | tissue uptake at 48 h (Ex vivo biodistribution; skin): 6.3 ± 1.6 %ID/g | tissue uptake at 72 h (Ex vivo biodistribution; skin): 4.8 ± 0.3 %ID/g | tissue uptake at 4 h (Ex vivo biodistribution; spleen): 3.2 ± 0.7 %ID/g | tissue uptake at 24 h (Ex vivo biodistribution; spleen): 3.8 ± 0.4 %ID/g | tissue uptake at 48 h (Ex vivo biodistribution; spleen): 5.8 ± 0.6 %ID/g | tissue uptake at 72 h (Ex vivo biodistribution; spleen): 5.4 ± 0.2 %ID/g | tissue uptake at 4 h (Ex vivo biodistribution; stomach): 3.8 ± 0.4 %ID/g | tissue uptake at 24 h (Ex vivo biodistribution; stomach): 3.1 ± 1.4 %ID/g | tissue uptake at 48 h (Ex vivo biodistribution; stomach): 3.3 ± 1.2 %ID/g | tissue uptake at 72 h (Ex vivo biodistribution; stomach): 3 ± 0.5 %ID/g | tissue uptake at 4 h (Ex vivo biodistribution; tumor): 4.1 ± 0.5 %ID/g | tissue uptake at 24 h (Ex vivo biodistribution; tumor): 6.5 ± 0.2 %ID/g | tissue uptake at 48 h (Ex vivo biodistribution; tumor): 7.3 ± 0.4 %ID/g | tissue uptake at 72 h (Ex vivo biodistribution; tumor): 7.3 ± 0.9 %ID/g | logD [1]: -1.6 ± 0.03 | tissue uptake per volume at 4 h (In vivo SPECT/CT imaging): 3.7 ± 0.9 %ID/mL | tissue uptake per volume at 24 h (In vivo SPECT/CT imaging): 4.9 ± 0.5 %ID/mL | tissue uptake per volume at 48 h (In vivo SPECT/CT imaging): 5.7 ± 0.6 %ID/mL | tissue uptake per volume at 72 h (In vivo SPECT/CT imaging): 4.9 ± 0.3 %ID/mL | SPECT quantification, kidneys (K), 4 h ([2]; 4 h post-injection): 7.7 ± 0.9 % ID/mL | SPECT quantification, kidneys (K), 24 h ([2]; 24 h post-injection): 10.1 ± 0.8 % ID/mL | SPECT quantification, kidneys (K), 48 h ([2]; 48 h post-injection): 10.1 ± 0.3 % ID/mL | SPECT quantification, kidneys (K), 72 h ([2]; 72 h post-injection): 8.9 ± 0.2 % ID/mL | remaining at 1 h (Stability in mouse serum; 1 h): 97.3% | remaining at 4 h (Stability in mouse serum; 4 h): 98.4% | remaining at 24 h (Stability in mouse serum; 24 h): 98.5% | Stability in PBS (%) 1 h (Stability in PBS; 1 h): 96.5% | Stability in PBS (%) 4 h (Stability in PBS; 4 h): 96.5% | Stability in PBS (%) 24 h (Stability in PBS; 24 h): 97.2% | Protein-Bound Fraction (%) (human albumin): 89.5 ± 0.8%
